Assay: Hair treatment protocol: solvent pre-treatment before oxidative dyeing, colour strength K/S measured by spectrophotometer
Conditions: for K/.S vs. DI Water: switch soaked 5 minutes in neat solvent, then level 3 oxidative hair colorant (Nice n' Easy) 30 minutes at 30°C, dye uptake change vs. DI water

SMILES | K/.S vs. DI Water [%] | K/S vs. DI Water (Glycerine Content 10 % wt. in deionised water as pre-treatment composition) [%] | K/S vs. DI Water (Glycerine Content 25 % wt. in deionised water as pre-treatment composition) [%] | K/S vs. DI Water (Glycerine Content 50 % wt. in deionised water as pre-treatment composition) [%] | K/S vs. DI Water (Glycerine Content 70 % wt. in deionised water as pre-treatment composition) [%]
OCCOCCO [Diethyleneglycol] | -50 |  |  |  | 
OCC(O)CO [Glycerine] | -40 | -2 | -4 | -20 | -43

Source: patent publication EP2092932A2, “Processes to pre-treat hair with organic solvents” (The Procter and Gamble Company, priority 2006, dated 2008)
